# Measured values from patent publication US6365634B1, “Naturally occurring compounds and their derivatives as cyclooxygenase 2 and/or 5-lipoxygenase inhibitors” (C-P Technology Limited Partnership, priority 1997, dated 2002).
# Tested on: human keratinocytes
# Test: Lactate dehydrogenase (LDH) release toxicity assay
# Type: cell-based
# Settings: highest value of any culture treated with 5, 1.0, 0.2 or 0.04 uM
# Experimental: To address the possibility that the inhibition of both PGE2 and LTB4 production by human keratinocytes treated with dehydroabietic acid methyl ester was […], a cell lactate dehydrogenase toxicity assay (Fisher Scientific) was performed. Briefly, lactate dehydrogenase (LDH) is found intracellularly and is released only in response to toxic stimuli and/or cell death. The amount of LDH released into the media of cultured cells is indicative of the degree of toxicity occurring in that culture. To do the assay, 48-well plates of cultured human keratinocytes (as described above for the PGE2 assay) were prepared and treated with the same concentrations of dehydroabietic acid methyl ester as described above for the PGE2 and LTB4 assays. One hour prior to harvesting culture media samples from wells treated with dehydroabietic acid methyl ester, duplicate wells were treated with a cell lysis buffer (Fisher Scientific) that caused 100% cell death to occur in the treated wells. After culture media samples were collected from all wells, the amount of LDH present in each was determined using a colorometric assay (Fisher Scientific). […] The amount of LDH released into the media of cultures treated with dehydroabietic acid methyl ester as well as vehicle-control media was determined using the colorometric assay and expressed as a percentage of that released by the 100% cell death wells.
# To address the possibility that the inhibition of PGE2 production by human keratinocytes treated with 4-cumylphenol was due to toxicity, a cell lactate dehydrogenase toxicity assay (Fisher Scientific) was performed. […] After culture media samples were collected from all wells, the amount of LDH present in each was determined using a colorometric assay (Fisher Scientific). […] The amount of LDH released into the media of cultures treated with dehydroabietic acid methyl ester as well as vehicle-control media was determined using the colorometric assay and expressed as a percentage of that released by the 100% cell death wells. […]
row,SMILES,percent toxicity (LDH released) versus the 100% cell death control [%]
1,"COC(=O)[C@]1(C)CCC[C@]2(C)c3ccc(C(C)C)cc3CC[C@@H]12 [Dehydroabietic acid methyl ester, dehydroabietic acid methyl ester]",≤ 12
2,"CC(C)(c1ccccc1)c1ccc(O)cc1 [4-Cumylphenol, 4-cumylphenol]",≤ 12.7
